Several values for one entry are separate records, joined by “and”; a condition that tells them apart may be missing. Equal values may be shown once. Toxic doses and inconclusive results are not listed. Rule for the calls: active = survival T/C of 150% or more; inactive = T/C below 125% in these data. Peptide text beside a SMILES is read from it. * marks the point of attachment. Cbz = O=C(OCc1ccccc1)*; Bn = c1ccc(C*)cc1
Tested on: P388 leukemia ip, CD2F1 mice, survival T/C
Experiment: NCI In Vivo Anticancer Drug Screen. Data for tumor model P388 Leukemia (intraperitoneal) in CD2F1 (CDF1) mice
Settings: endpoint: median survival time, higher = longer survival
Outline: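 Mice carrying the transplanted tumor received test compound or vehicle. Survival was recorded in each group, and the value is the treated-group measurement divided by that of the vehicle-treated control group.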

[1] = dose: 50.0 mg/kg/injection, schedule: Q01DX005 (ip), vehicle: saline with Tween-80
[2] = dose: 100.0 mg/kg/injection, schedule: Q01DX005 (ip), vehicle: saline with Tween-80
[3] = dose: 200.0 mg/kg/injection, schedule: Q01DX005 (ip), vehicle: saline with Tween-80
[4] = dose: 12.5 mg/kg/injection, schedule: Q01DX009 (ip), vehicle: distilled water + Tween-80
[5] = dose: 25.0 mg/kg/injection, schedule: Q01DX009 (ip), vehicle: distilled water + Tween-80
[6] = dose: 50.0 mg/kg/injection, schedule: Q01DX009 (ip), vehicle: distilled water + Tween-80
[7] = dose: 100.0 mg/kg/injection, schedule: Q01DX009 (ip), vehicle: distilled water + Tween-80
[8] = dose: 200.0 mg/kg/injection, schedule: Q01DX009 (ip), vehicle: distilled water + Tween-80
[9] = dose: 50.0 mg/kg/injection, schedule: Q01DX005 (ip), vehicle: Klucel (hydroxypropylcellulose) (HPC)
[10] = dose: 100.0 mg/kg/injection, schedule: Q01DX005 (ip), vehicle: Klucel (hydroxypropylcellulose) (HPC)
[11] = dose: 200.0 mg/kg/injection, schedule: Q01DX005 (ip), vehicle: Klucel (hydroxypropylcellulose) (HPC)
[12] = dose: 50.0 mg/kg/injection, schedule: Q01DX009 (ip), vehicle: saline with Tween-80
[13] = dose: 100.0 mg/kg/injection, schedule: Q01DX009 (ip), vehicle: saline with Tween-80
[14] = dose: 60.0 mg/kg/injection, schedule: Q01DX005 (ip), vehicle: saline with Tween-80
[15] = dose: 120.0 mg/kg/injection, schedule: Q01DX005 (ip), vehicle: saline with Tween-80
[16] = dose: 240.0 mg/kg/injection, schedule: Q01DX005 (ip), vehicle: saline with Tween-80
[17] = dose: 25.0 mg/kg/injection, schedule: Q01DX009 (ip), vehicle: saline with Tween-80
[18] = dose: 50.0 mg/kg/injection, schedule: Q01DX005 (ip), vehicle: saline
[19] = dose: 100.0 mg/kg/injection, schedule: Q01DX005 (ip), vehicle: saline
[20] = dose: 50.0 mg/kg/injection, schedule: Q01DX009 (ip), vehicle: Klucel (hydroxypropylcellulose) (HPC)
[21] = dose: 100.0 mg/kg/injection, schedule: Q01DX009 (ip), vehicle: Klucel (hydroxypropylcellulose) (HPC)
[22] = dose: 200.0 mg/kg/injection, schedule: Q01DX009 (ip), vehicle: Klucel (hydroxypropylcellulose) (HPC)

Measured: T/C

CCn1c2ccc([N+](=O)[O-])cc2c2c([N+](=O)[O-])c(N)ccc21
inactive: [1] 92 % of control | [2] 87 % of control | [3] 90 % of control

Cc1sc([S-])n[n+]1-c1ccccc1
inactive: dose: 6.25 mg/kg/injection, schedule: Q01DX009 (ip), vehicle: distilled water + Tween-80 93 % of control | [4] 90 % of control | [5] 96 % of control | [6] 97 % of control | [7] 110 % of control | [8] 105 % of control

O=C1NC2(CCN(Cc3ccccc3)CC2)Nc2ccccc21
inactive: [9] 99 % of control | [10] 99 % of control | [11] 97 % of control

O=c1c2sc3ccccc3c2ncn1/N=C/c1ccc(Cl)cc1
inactive: [9] 105 % of control | [10] 96 % of control | [11] 88 % of control

NC(Cc1ccc(O)c(N=Nc2ccc([N+](=O)[O-])cc2)c1)C(=O)O (configuration not stated)
inactive: dose: 100.0 mg/kg/injection, schedule: Q01DX001 (ip), vehicle: saline 103 % of control | dose: 200.0 mg/kg/injection, schedule: Q01DX001 (ip), vehicle: saline 100 % of control | dose: 400.0 mg/kg/injection, schedule: Q01DX001 (ip), vehicle: saline 100 % of control

COC(=O)C(CSCc1ccccc1)NC(=O)C(CC(N)=O)NC(=O)OCc1ccccc1 (stereo not drawn) (Cbz-Asn-Cys(Bn)-OMe; configuration not given here)
inactive: [4] 88 % of control | [5] 88 % of control | [6] 91 % of control | [7] 92 % of control | [8] 103 % of control

CCOC(=O)C(=CNNCCC#N)C(=O)OCC
inactive: [12] 90 % of control | [13] 90 % of control | dose: 200.0 mg/kg/injection, schedule: Q01DX009 (ip), vehicle: saline with Tween-80 95 % of control

Cc1cc(=O)oc2cc(O)c(C(=O)/C=C/N(C)C)cc12
inactive: [14] 92 % of control | [15] 95 % of control | [16] 86 % of control

CC1C(=O)N(c2ccccc2)c2nc3ccccc3nc21 (configuration not stated)
inactive: dose: 100.0 mg/kg/injection, schedule: Q04DX003 (ip), vehicle: saline 88 % of control | dose: 200.0 mg/kg/injection, schedule: Q04DX003 (ip), vehicle: saline 97 % of control | dose: 400.0 mg/kg/injection, schedule: Q04DX003 (ip), vehicle: saline 111 % of control

Nc1nc(Nc2ccccc2)nc(SCc2ccccc2)n1
inactive: [17] 99 % of control | [12] 90 % of control | [13] 88 % of control

O=C1OC(C2OC(=O)C(=O)C2C(=O)c2ccccc2)C(C(=O)c2ccccc2)C1=O (configuration not stated)
inactive: [14] 111 % of control | [15] 108 % of control | [16] 108 % of control

COc1ccc(C2/C(=N/O)CCCC2C)cc1 (configuration not stated)
inactive: [1] 94 % of control | [2] 97 % of control | [3] 87 % of control

CNC(=O)OCCC(OC(=O)NC)C1CCC2C3CCC4CC(OC(=O)NC)CCC4(C)C3CCC12C (configuration not stated)
inactive: dose: 100.0 mg/kg/injection, schedule: Q01DX001 (ip), vehicle: Klucel (hydroxypropylcellulose) (HPC) 108 % of control | dose: 200.0 mg/kg/injection, schedule: Q01DX001 (ip), vehicle: Klucel (hydroxypropylcellulose) (HPC) 108 % of control | dose: 400.0 mg/kg/injection, schedule: Q01DX001 (ip), vehicle: Klucel (hydroxypropylcellulose) (HPC) 101 % of control

CCNc1ncnc2c1cnn2C
inactive: dose: 25.0 mg/kg/injection, schedule: Q01DX009 (ip), vehicle: saline sonified 109 % of control | dose: 50.0 mg/kg/injection, schedule: Q01DX009 (ip), vehicle: saline sonified 113 % of control | dose: 50.0 mg/kg/injection, schedule: Q04DX003 (ip), vehicle: saline sonified 112 % of control | dose: 100.0 mg/kg/injection, schedule: Q04DX003 (ip), vehicle: saline sonified 104 % of control | dose: 200.0 mg/kg/injection, schedule: Q04DX003 (ip), vehicle: saline sonified 116 % of control

CN(C)CCN(Cc1ccc(Cl)s1)c1ccccn1
inactive: [18] 101 % of control | [19] 99 % of control

O=C1C(=O)c2ccccc2C(O)=C1CC=C(Cl)Cl
inactive: dose: 6.2 mg/kg/injection, schedule: Q01DX009 (ip), vehicle: water 120 % of control | dose: 12.5 mg/kg/injection, schedule: Q01DX009 (ip), vehicle: water 120 % of control | dose: 25.0 mg/kg/injection, schedule: Q01DX009 (ip), vehicle: water 110 % of control | dose: 25.0 mg/kg/injection, schedule: Q01DX009 (oral), vehicle: water 105 % of control | dose: 50.0 mg/kg/injection, schedule: Q01DX009 (ip), vehicle: water 120 % of control | dose: 50.0 mg/kg/injection, schedule: Q01DX009 (oral), vehicle: water 120 % of control | dose: 100.0 mg/kg/injection, schedule: Q01DX009 (oral), vehicle: water 120 % of control

c1cc2sc3ccc(OCCCN4CCCCC4)cc3c2cc1OCCCN1CCCCC1
inactive: dose: 12.5 mg/kg/injection, schedule: Q01DX009 (ip), vehicle: saline with Tween-80 104 % of control | [17] 115 % of control | [12] 91 % of control

COc1ccccc1C(O)(C(F)(F)F)C(F)(F)F
inactive: [20] 101 % of control | [21] 98 % of control | [22] 95 % of control

CSC1(CC(=O)N(C)C)C(=O)N(C)c2ccccc21 (configuration not stated)
inactive: [17] 100 % of control | [12] 94 % of control | [13] 115 % of control

CC1(C)C[C@H]2C=C(C=O)[C@]34C[C@]3(C(=O)OC4O)[C@H]2C1 (some centres not stated)
inactive: dose: 0.18 mg/kg/injection, schedule: Q01DX009 (ip), vehicle: Klucel (hydroxypropylcellulose) (HPC) 103 % of control | dose: 0.78 mg/kg/injection, schedule: Q01DX009 (ip), vehicle: Klucel (hydroxypropylcellulose) (HPC) 111 % of control and 120 % of control | dose: 1.56 mg/kg/injection, schedule: Q01DX009 (ip), vehicle: Klucel (hydroxypropylcellulose) (HPC) 106 % of control and 117 % of control

Cn1ccc(C#N)c(C#N)c1=O
inactive: dose: 25.0 mg/kg/injection, schedule: Q01DX005 (ip), vehicle: Klucel (hydroxypropylcellulose) (HPC) 97 % of control | [9] 99 % of control | [10] 106 % of control | [11] 97 % of control

C=CCNC(=S)Nc1ccc(NC(C)=O)c(OC)c1
inactive: [20] 102 % of control | [21] 102 % of control | [22] 86 % of control

COC(=O)C1=[N+]([O-])[N+]([O-])=C(C(=O)OC)C1=O
inactive: dose: 12.5 mg/kg/injection, schedule: Q01DX009 (ip), vehicle: Klucel (hydroxypropylcellulose) (HPC) 95 % of control | dose: 25.0 mg/kg/injection, schedule: Q01DX009 (ip), vehicle: Klucel (hydroxypropylcellulose) (HPC) 94 % of control

Cc1cc(N=Nc2ccc(-c3ccc(N=Nc4ccc(O)c(C(=O)O)c4)cc3)cc2)c(N)c(N=Nc2cc(C(=O)O)ccc2Cl)c1N
inactive: [18] 104 % of control | [19] 104 % of control | dose: 200.0 mg/kg/injection, schedule: Q01DX005 (ip), vehicle: saline 90 % of control

Source: PubChem BioAssay AID330 (DTP/NCI, 2004)
